Entries after “also recorded” stand apart in the source; their conditions may differ.
Legend:
[1] = tested on: tail lymphedema; experiment: Oral administration, tail lymphedema, gross tail volume; type: in vivo, BALB/c mice; settings: oral gavage in sunflower oil for 6 weeks
Description: Oral administration experiments were performed on 30 adult BALB/c mice, 12 to 14 weeks old, and weighing between 21 and 30 g. Surgical excision of lymphatic vessels at 20-mm from the base of the tail was performed in order to induce secondary lymphedema. Mice receive 9-cis RA dissolved in sunflower oil via oral gavage for 6 weeks in accordance to the dosing regimes in Table 3.

[2] = tested on: tail lymphedema; experiment: Mouse tail secondary lymphedema model, tail volume (intraperitoneal injection); type: in vivo, BALB/c mice
Description: All experiments were performed in accordance with the The Guide for the Care and Use of Laboratory Animals (National Research Council, 8th ed, 2011) and the Animal Welfare Act. Our protocol was approved by the University of Southern California Institutional Animal Care and Use Committee. Fifty adult BALB/c mice, 12 to 14 weeks old, weighing between 21 and 30 g were purchased from Jackson Laboratories (Jackson, Bar Harbor, ME). Animals were maintained in a temperature and light-controlled environment with ad libitum access to a normal chow diet and water.
A previously well described tail model to induce lymphedema was modified in the present experiments. Mice were anesthetized using 2.5% isofluorane, and a 5-mm wide circumferential skin excision was made 20-mm from the base of the tail. Underlying lymphatic vessels were visualized using isosulfan blue and ligated under a dissecting surgical microscope. Daily bacitracin antibiotic ointment was applied to the surgical site to prevent wound infection and desiccation.
Animals were randomly assigned to one of five groups following surgery: control, 7 days, 14 days, 45 days, and delay. Mice received daily intraperitoneal injections of either 100 μL vehicle solution (90 μL sunflower seed oil/10 μL 100% ethanol) or 0.08 mg/kg 9-cis RA dissolved in 100 μL of vehicle solution [5]. The treatment administered to each group was: (1) control: vehicle for 45 days following surgery, (2) 7 day: 9-cis RA for 7 days, (3) 14 day: 9-cis RA for 14 days, (4) 45 day: 9-cis RA for 45 days, and (5) delay: 9-cis RA for 7 days beginning one week after surgery. Animals with necrotic tails or that developed surgical site infections were sacrificed and excluded from analysis.
Animals were photographed every five days for a 6-week duration, and tail diameter was measured using ImageJ (National Institutes of Health, Bethesda, MD). Measurements were taken at 5-mm intervals from the distal-most edge of the wound for a total of seven measurements per animal for every time point. Total distal tail volume was calculated using the truncated cone formula [8]. Percent change in distal tail volume was recorded, analyzed, and plotted using GraphPad Prism 7 (GraphPad Software, Inc.).

CC1=C(/C=C/C(C)=C\C=C\C(C)=C\C(=O)O)C(C)(C)CCC1 [9-cis RA, 9-cis retinoic acid]
change in gross tail volume ([1]; high dose 30 mg/kg): decreases change in gross tail volume | change in gross tail volume ([1]; low dose 10 mg/kg, 10 mg/kg): decreases change in gross tail volume | change in gross tail volume ([1]; low dose 10 mg/kg, listed as 9-cis retinoic acid, 10 mg/kg): most effective for preventing post-surgical tail lymphedema | tail volume compared to control ([2]; 0.08 mg/kg daily i.p. for 7 days): approached tail volumes similar to the lymphedematous control group past the 4-week time point; also recorded: no significant effect on tail lymphedema or dermal thickening | tail volume compared to control ([2]; 0.08 mg/kg daily i.p. for 7 days beginning one week after surgery (delay group)): statistically significant decrease in tail volumes from day-14 onwards; also recorded: decreased tail volume | tail volume compared to control ([2]; 0.08 mg/kg daily i.p. for 14 days): approached tail volumes similar to the lymphedematous control group past the 4-week time point; also recorded: no significant difference in tail volume | tail volume compared to control ([2]; 0.08 mg/kg daily i.p., continuous (45-day/42-day group)): significantly smaller than the lymphedematous controls

— patent US12329852B2, “Sustained-release 9-cis retinoic acid implantable drug delivery pellets for the prevention of postsurgical edema and lymphedema” (UNIVERSITY OF SOUTHERN CALIFORNIA, priority 2019, dated 2025)
